These results are taken from PubChem BioAssay (NCI).

Some test systems named below: BT-549 breast; XF 498 CNS; LXFL 529 NSCLC; KM20L2 colon; M19-MEL melanoma; MDA-N; HOP-18 NSCLC.
What all share (assay): NCI anticancer screen, dose series, 48 h

The structures appear in SMILES notation. Where “and” joins values, the source holds several entries; their conditions need not be identical. Identical values can stand only once.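 96-well plates; 48 h exposure; 5 concentrations. Endpoints by linear interpolation between flanking doses. Not reached: highest tested concentration assigned. GI50 is the concentration that inhibits growth by half. TGI marks complete inhibition of growth.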

On to `COc1cc(-c2ccc[nH]2)[nH]c1/C=C1\N=C(C)C(C(=O)NC(C)C)=C1C`, for which, in the test with BT-549 breast, the GI50 was 4.62 µM and the TGI turned out to be 18.9 µM.
Take `C=C(c1ccc(C(=O)NCCCn2ccnc2)cc1)c1cc2c(cc1C)C(C)(C)CCC2(C)C`: in the test with BT-549 breast, the GI50 was 3.14 µM and the TGI was found to be 14.9 µM.
Take `CC1(O)CC2C(CC1SCc1ccccc1)C2(C)C` (stereo not given): the TGI was 32.9 µM and 37.4 µM in the test on XF 498 CNS; > 100 µM and 28.1 µM in the test with LXFL 529 NSCLC; 59.4 µM and 35.9 µM in the test on KM20L2 colon; 57.8 µM and > 100 µM in the test on M19-MEL melanoma. Moreover, the GI50 in the test on LXFL 529 NSCLC is 38.6 µM and 14.8 µM; with M19-MEL melanoma it was 26.2 µM and > 100 µM.
With `COc1ccccc1CNCCCN1C(=O)c2ccc3c4c(ccc(c24)C1=O)C(=O)N(CCCNCCCCN)C3=O`, in the test on BT-549 breast, the GI50 is 1.21 µM and the TGI amounted to 2.59 µM.
As to `COc1ccc([C@H]2c3[nH]c4ccccc4c3C[C@H]3C(=O)N(CCCCCCC(=O)NO)CC(=O)N23)cc1`, in the test with BT-549 breast, the GI50 was 10.9 µM and the TGI is more than 33.3 µM.
For the molecule `c1ccc2[nH]c(-c3cscn3)nc2c1`, the TGI in the test with BT-549 breast and in the test on MDA-N was more than 100 µM in each case.
With `O=C(/C=N/O)Nc1cccc(Cl)c1I`, the TGI with XF 498 CNS, in the test on LXFL 529 NSCLC, in the test on KM20L2 colon and in the test on M19-MEL melanoma was more than 100 µM in each case.
Consider `COc1ccc(/C(C#N)=C2/O/C(=N/N)C(c3ccc(OC)c(OC)c3)C2=O)cc1OC` (stereo not given), for which the TGI in the test with XF 498 CNS, in the test with LXFL 529 NSCLC, with KM20L2 colon and with M19-MEL melanoma was more than 100 µM throughout.
Regarding `C=C1CCC2C(C)(CO)C(O)CCC2(C)C1C/C=C1\C(=O)OCC1O` (stereo not given), the TGI with BT-549 breast was 20.3 µM; in the test with MDA-N, 55.1 µM.
On to `CCOc1ccc(N=Nc2c(-c3ccccc3)nn(C(=O)CC(=O)Nc3ccccc3Cl)c2-c2ccccc2)cc1`, for which the TGI in the test on XF 498 CNS, in the test with LXFL 529 NSCLC, in the test on KM20L2 colon, in the test with HOP-18 NSCLC and in the test on M19-MEL melanoma was more than 100 µM each time.
Consider `COc1cc(OC)c(OC)cc1/C=C\c1ccnc2ccccc12`, for which the TGI in the test with BT-549 breast was more than 100 µM; in the test with MDA-N it was 0.791 µM; with LXFL 529 NSCLC, more than 100 µM; in the test on KM20L2 colon it was 6.86 µM; in the test with M19-MEL melanoma, more than 100 µM.
`CSc1ccc2c(c1)N(CCCN(C)C)c1ccccc1S2`: the TGI in the test on BT-549 breast was 29.2 µM; with MDA-N it was 23.9 µM.
Regarding `COc1cc(C(=O)Nc2ccc(-c3nc4ccccc4[nH]3)cc2)cc(OC)c1OC`, in the test with BT-549 breast, the GI50 was 12.7 µM and the TGI was 29.2 µM.
`CC(=O)Nc1ccc2c(c1)[nH]c(=O)c1cc(Cl)ccc12`: the TGI with BT-549 breast was more than 100 µM.
Turning to `COc1cc(COC(=O)N(C)[C@@H](Cc2ccccc2)C(=O)O)c([N+](=O)[O-])cc1OC`, the TGI in the test on BT-549 breast and in the test on MDA-N was more than 100 µM in each case.
Take `O=C(Nc1ccc(-n2cc(-c3ccncc3)c(-c3ccc(Cl)c(O)c3)n2)cc1)c1ccc(Cl)c(Cl)c1`: in the test on BT-549 breast, the GI50 was 5.04 µM and the TGI was more than 100 µM.
In the case of `COc1cc2c(c(OC)c1OC)-c1ccc(SC)c(=O)cc1C(CC(=O)Oc1ccccc1F)C2` (stereo not given), the TGI is more than 7.5 µM in the test with LXFL 529 NSCLC, 0.0252 µM in the test on KM20L2 colon and more than 7.5 µM with M19-MEL melanoma.
Consider `CC(=O)OCCc1cc2ccccc2oc1=O`, for which the TGI in the test on BT-549 breast and with MDA-N was more than 100 µM each time.
Take `CC(C)(C)c1cnc(CSc2cnc(NC(=O)C3CCNCC3)s2)o1`: in the test with BT-549 breast, the GI50 was 0.304 µM and 0.298 µM; the TGI is 2.83 µM and 2.45 µM.
Take `Fc1nc(Sc2ncnc3nc[nH]c23)nc(-c2c3ccccc3c3sc4ccccc4n23)n1`: the TGI with BT-549 breast and with MDA-N was more than 100 µM each time.
`CCOC(=O)C(=O)Nc1nc2ccc(OC)cc2s1`: the TGI with LXFL 529 NSCLC, in the test on KM20L2 colon, with HOP-18 NSCLC and in the test on M19-MEL melanoma was more than 100 µM each time.
`CNc1ccc(CSc2ccc(C)cc2)cc1`: in the test with BT-549 breast, the GI50 is 3.08 µM and the TGI came out at 23 µM.
On to `Nc1cccc(C(=O)/C=C/c2ccccc2O)c1`, for which the TGI in the test on XF 498 CNS, in the test with LXFL 529 NSCLC, in the test with KM20L2 colon, with HOP-18 NSCLC and with M19-MEL melanoma was more than 100 µM throughout.
Regarding `Cc1ncc([N+](=O)[O-])n1CCOc1ccc(C(=O)/C=C/c2ccc(C(F)(F)F)cc2)cc1`, in the test on BT-549 breast, the GI50 is 4.64 µM and the TGI was found to be 17 µM.
Consider `CCCCCCC1CCCCN1C(c1ccccc1)C(O)c1ccccc1` (stereo not given), for which, in the test with BT-549 breast, the GI50 was 10.4 µM and the TGI was 22.4 µM.
With `COc1cc(/C=C/C(=O)/C=C/c2ccc(-n3ccnc3)cc2)ccc1O`, in the test with BT-549 breast, the GI50 is 1.87 µM and the TGI amounted to 3.79 µM.
On to `NC(=O)N1N=C2c3ccccc3OC[C@H]2[C@@H]1c1ccccc1`, for which the TGI with XF 498 CNS was more than 100 µM; in the test with LXFL 529 NSCLC, more than 100 µM; in the test on KM20L2 colon, 49.8 µM; with HOP-18 NSCLC it was more than 100 µM; with M19-MEL melanoma, more than 100 µM.
Consider `O=C(NCCNC1=CC(=O)c2nc3ccccc3c3ccnc1c23)c1cnccn1`, for which, in the test with BT-549 breast, the GI50 was 44.8 µM and the TGI was more than 100 µM.
In turn, `COc1ccc(N=C2C(=O)Nc3ccc(Br)cc32)cc1` yielded a TGI in the test with MDA-N of 30.3 µM.
For `Cn1cc(C2=C(c3cccc([N+](=O)[O-])c3)C(=O)NC2=O)c2ccccc21`, in the test with BT-549 breast, the GI50 was 6.38 µM and the TGI is more than 23.2 µM.
For `COc1cc(C(=O)/C=C/c2c(C)n([O-])c3ccc(Cl)cc3[n+]2=O)cc(OC)c1OC`, in the test with BT-549 breast, the GI50 is 11 µM and the TGI is more than 100 µM.
For `c1ccc(-c2nc3ccccc3[nH]2)c(OCCCCCOc2ccccc2-c2nc3ccccc3[nH]2)c1`, in the test with BT-549 breast, the GI50 is 13.5 µM and the TGI was 33.3 µM.
